Experimental data published in patent publication US6706839B1, “Chemical partitioning agents and methods of using same” (University of Pittsburgh, priority 1999, dated 2004).

Assay: Solubility of stilbene precipiton isomers in organic solvents (qualitative observations)
Type: physicochemical
Settings: for solubility in THF: reaction solvent of the Z to E isomerization
Description: When a solution of (Z)-stilbene (51Z or 52Z) in THF was heated to reflux at 80-90° C. in the presence of Ph2S2 (0.2 equiv) for several hours, the Z to E isomerization occurred smoothly. The reaction was followed by ^1H NMR (either vinylic protons or NMe2 (51Z), OMe (52Z)). As the reaction proceeded, solid precipitate came out of the solution. […] The E-isomer was obtained pure in a 44% (51E) and 79% (52E) yield, respectively without any contamination of either Z-isomer or Ph2S2. […] In high-boiling solvents such as toluene and p-dioxane, the isomerization was faster than in THF and the reaction was completed in less than 3 h (Table 32). A second catalytic method for isomerization/precipitation employs iodine and a radical initiator, for example dibenzoylperoxide. Irradiation of the cis-alkenes in the presence of 1-50 mol % iodine and 0.1-25 mol % dibenzoylperoxide affords clean isomerization of the cis to trans alkene.
(2-Naphthalenylmethyl)triphenylphosphonium bromide ((a) Tinnemans, A. H. A.; Laarhoven, W. H. J. Chem. Soc. Perkin. Trans. 2, 1976, 1104-1111. (b) Zelikovich, L.; Hoffman, R. E.; Ayalon, A.; Rabinovitz, M. J. Chem. Soc. Perkin. Trans. 2, 1992, 1785-1792) was treated with NaH in DMF to generate a corresponding ylide. A solution of 4-methoxy-1-naphthaldehyde in DMF was added and stirred at 35-50° C. for 2 h at to give 1,2-naphthylstilbene 53 in 51% yield (53Z:53E=1:1.2). 6-Methoxy-2-naphthaldehyde ((a) Harvey, R. G.; Cortez, C.; Sawyer, T. W.; DiGiovanni, J.; J. Med. Chem. 1988, 31, 1308-1312. (b) Harvey, R. G.; Cortez, C. Tetrahedron, 1997, 53, 7101-7118) was prepared by formylation (Beringer, F. M.; Nathan, R. A. J. Org. Chem. 1969, 34, 685-689) of 6-methoxy-2-bromonaphthalene in 53% yield. When (2-naphthalenylmethyl)-triphenylphosphonium bromide was reacted with 6-methoxy-2-naphthaldehyde in a similar manner as 1,2-naphthylstilbene, (Z)-2,2-naphthylstilbene 54Z was prepared in 39% isolated yield. […]

SMILES	solubility in Et2O, compared with 52E (Et2O, trituration solvent, relative to 52E)	solubility in THF
CN(C)c1ccc(/C=C/c2ccc(Br)cc2)cc1 [51E]	bigger solubility	partially soluble
COc1ccc(/C=C/c2ccc(-c3ccccc3)cc2)cc1 [52E]		partially soluble
